The target in assay [1] is T1, CRTH2 (Homo sapiens, UniProt Q9Y5Y4).
T1 construct: endogenous in cells; host or cells: eosinophils in human whole blood
T1 sequence (Q9Y5Y4 1-395): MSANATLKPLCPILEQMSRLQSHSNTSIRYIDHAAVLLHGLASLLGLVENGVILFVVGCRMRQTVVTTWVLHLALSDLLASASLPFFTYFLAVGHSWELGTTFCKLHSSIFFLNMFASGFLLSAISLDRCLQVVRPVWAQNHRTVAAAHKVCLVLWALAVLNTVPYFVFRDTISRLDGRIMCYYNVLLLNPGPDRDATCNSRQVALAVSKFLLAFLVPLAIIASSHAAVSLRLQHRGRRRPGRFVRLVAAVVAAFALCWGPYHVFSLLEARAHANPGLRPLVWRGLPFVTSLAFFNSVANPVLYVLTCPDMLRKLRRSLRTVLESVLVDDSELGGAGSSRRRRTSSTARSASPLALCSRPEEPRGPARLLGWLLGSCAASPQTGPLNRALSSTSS
Put plainly: DPBS CD11b antagonist assay (CD11b expression in eosinophils challenged with 15R-Methyl-PGD2). Type of assay: cell-based. Conditions: polymorphonuclear cells in PBS with CaCl2/MgCl2; agonist 15R-Methyl-PGD2 10 nM; eosinophils gated by flow cytometry. The method, then: DPBS CD111b Antagonist Assay.
The potential CRTH2 antagonist, activity of certain compounds was tested using a CD11b expression assay using essentially the method described by Monneret et al. (J Pharmacol Exp Ther 304:349-55, 2003). Briefly, polymorphonuclear cells (0.5 ml; 10^6/ml cells) in PBS containing 0.9 mM CaCl2 and 0.5 mM MgCl2) were preincubated with various concentrations of test compounds at room temperature for 10 minutes before they were challenged with the agonist 15R-Methyl-PGD2 (10 nM). The incubations were terminated by the addition of ice-cold FACSFlow (BD Biosciences; Cat#342003) and centrifugation (400 g for 5 minutes at 4° C.). The cells were then incubated for 30 minutes at 4° C. with a mixture of PE-labeled mouse anti-human VLA-4 (5 μl; BD Biosciences) and FITC-labeled mouse anti-human CD11b (10 μl; Beckman Coulter). The cells were then incubated with Optilyse C (0.25 ml; Beckman Coulter) for 15 minutes, centrifuged, and then fixed in PBS (0.4 ml; calcium and magnesium free) containing 1% formaldehyde. The distribution of fluorescence intensities among 60,000 cells was measured by flow cytometry. Eosinophils were gated out on the basis of their granularity (high side scatter) and labeling with VLA-4 (PE fluorescence). CD11b was then measured in the eosinophil region on the basis of fluorescence due to FITC. All data were corrected for the value obtained for the corresponding isotope control antibody.
Background: In flow cytometry, cells or beads pass a laser one at a time.

Assay [2] addresses T1, CRTH2. Kind of assay: Human whole blood CD11b antagonist assay (CD11b expression in eosinophils challenged with 15-R-methyl-PGD2). Particulars: 37° C. 10 minutes preincubation, agonist 15R-Methyl-PGD2 10 nM, eosinophils gated by flow cytometry. Type of assay: cell-based. The method, then:
Human Whole Blood […] Antagonist Assay (Modified from Nicholson, et al. Pulmonary Pharmacology and Therapeutics: 20 (2007); 52-59).
The potential CRTH2 antagonist activity of certain compounds was tested in human whole blood using an assay that tests the ability of the compounds to block the CD11b expression in eosinophils by 15-R-methyl-PGD2. A CRTH2 antagonist should block CD11b expression by subsequently added 15-Methyl-PGD2. Human whole blood (200 μL) was incubated at 37° C. for 10 minutes in the presence of various concentrations of test compounds before being challenged with the agonist 1-5R-Methyl-PGD2 (10 nM). Reactions were terminated by the addition of ice-cold PBS+0.5% BSA+2 mM EDTA (1 mL) and centrifugation (300×g for 5 minutes at 4° C.) Cells were then incubated at 4° C. for 10 min in the presence of human IgG. Cells were then incubated for 30-45 min with a mixture of PE-Cy5-labeled mouse anti-human CD16 (10 ul; BD Biosciences) and FITC-labeled mouse anti-human CD11b (10 μL; Beckman Coulter.) After rinsing (1 mL ice-cold PBS+0.5% BSA+2 mM EDTA), red blood cells were lysed by the addition of 1 mL ice-cold H2O to the cell pellet for 30 sec-1 min immediately followed by the addition of 3.5% NaCl (300 μL.) Cells were then rinsed (2×−1 ml ice cold PBS+0.5% BSA+2m MEDTA) and fixed in PBS containing 1% formaldehyde. The distribution of fluorescence intensities was measured by flow cytometry. Eosinophils were gated out on the basis of their granularity (high side scatter) and absence of CD-16. CD11b was then measured on this eosinophil population on the basis of fluorescence due to FITC.

Turning to `COc1ccc(S(=O)(=O)c2ncccc2Cc2c3c(n(CC(=O)O)c2C)CC(C)(C)CC3=O)cc1` [Compound I-7, 2-(3-((2-(4-methoxyphenylsulfonyl)pyridin-3-yl)methyl)-2,6,6-trimethyl-4-oxo-4,5,6,7-tetrahydro-1H-indol-1-yl)acetic acid], the figures for the concentration for half-maximal inhibition (IC50) on CRTH2 [1] and at CRTH2 [2] were under 1 nM and 20 to 100 nM, respectively.

As to `CCOC(=O)Cn1c(C)c(Cc2cccnc2S(=O)(=O)c2ccc(Cl)cc2)c2c1CC(C)(C)CC2=O` [Compound I-14, Ethyl 2-(3-((2-(4-chlorophenylsulfonyl)pyridin-3-yl)methyl)-2,6,6-trimethyl-4-oxo-4,5,6,7-tetrahydro-1H-indol-1-yl)acetate], the half-maximal inhibitory concentration (IC50) (usually the concentration that gives 50% inhibition) on CRTH2 [1] lay within 100 to 500 nM; at CRTH2 [2], 500 to 3000 nM.

For `Cc1c(Cc2ccccc2NS(=O)(=O)N2CCOCC2)c2c(n1CC(=O)O)CC(C)(C)CC2=O` [Compound I-49], the IC50 at CRTH2 [1] is 1 to 5 nM; at CRTH2 [2] it was 20 to 100 nM.

Turning to `Cc1ccc(S(=O)(=O)N(C)c2ccccc2Cc2c3c(n(CC(=O)O)c2C)CC(C)(C)CC3=O)cc1` [Compound I-33, 2-(3-(2-(N,4-dimethylphenylsulfonamido)benzyl)-2,6,6-trimethyl-4-oxo-4,5,6,7-tetrahydro-1H-indol-1-yl)acetic acid], the IC50 fell in the range of 1 to 5 nM on CRTH2 [1] and 100 to 500 nM at CRTH2 [2].

For the molecule `Cc1c(Cc2cccc(N(C)S(=O)(=O)N3CCCC3)c2)c2c(n1CC(=O)O)CC(C)(C)CC2=O` [Compound I-51, 2-(2,6,6-Trimethyl-3-(3-(N-methylpyrrolidine-1-sulfonamido)benzyl)-4-oxo-4,5,6,7-tetrahydro-1H-indol-1-yl)acetic acid], the figures for the IC50 at CRTH2 [1] and on CRTH2 [2] were 100 to 500 nM and over 3000 nM, respectively.

`CCOC(=O)Cn1c(C)c(Cc2cccnc2S(=O)(=O)c2cccc(OC)c2)c2c1CC(C)(C)CC2=O` [Compound I-11, Ethyl 2-(3-((2-(3-methoxyphenylsulfonyl)pyridin-3-yl)methyl)-2,6,6-trimethyl-4-oxo-4,5,6,7-tetrahydro-1H-indol-1-yl)acetate]: the values for the IC50 on CRTH2 [1] and at CRTH2 [2] were 100 to 500 nM and 500 to 3000 nM, respectively.

`Cc1c(Cc2ccccc2N(C)S(=O)(=O)c2ccccc2)c2c(n1CC(=O)O)CC(C)(C)CC2=O` [Compound I-35, 2-(2,6,6-Trimethyl-3-(2-(N-methylphenylsulfonamido)benzyl)-4-oxo-4,5,6,7-tetrahydro-1H-indol-1-yl)acetic acid]: the IC50 was 1 to 5 nM at CRTH2 [1] and 20 to 100 nM on CRTH2 [2].

As to `Cc1c(Cc2ccccc2NS(=O)(=O)c2ccccc2)c2c(n1CC(=O)O)CC(C)(C)CC2=O` [Compound I-24, 2-(2,6,6-Trimethyl-4-oxo-3-(2-(phenylsulfonamido)benzyl)-4,5,6,7-tetrahydro-1H-indol-1-yl)acetic acid], the IC50 at CRTH2 [1] is under 1 nM; at CRTH2 [2], 5 to 20 nM.

On to `Cc1c(Cc2ccccc2S(=O)(=O)N2CCCC2)c2c(n1CC(=O)O)CC(C)(C)C/C2=N\OC(C)(C)C` [Compound I-30, (E)-2-(4-(tert-Butoxyimino)-2,6,6-trimethyl-3-(2-(pyrrolidin-1-ylsulfonyl)benzyl)-4,5,6,7-tetrahydro-1H-indol-1-yl)acetic acid], for which the concentration for half-maximal inhibition (IC50) at CRTH2 [1] is 1 to 5 nM; on CRTH2 [2], 100 to 500 nM.

For the origin of these results see patent US20130259830A1, “CRTH2 MODULATORS” (Ironwood Pharmaceuticals, Inc., priority 2010, published 2013).
